{"source": "paper PMC11053914", "about": "(Viruses, 2024)", "key": {"[1]": {"tested_on": "A3G (Vif-mediated degradation)", "experiment": "A3G level in the presence of Vif by Western blotting in HEK293T cells", "format": "cell-based, human", "conditions": "proteasome inhibitor positive control; A3G without Vif = 100%, Vif alone 31%"}, "[2]": {"tested_on": "HIV-1 NL4-3 packaged with A3G", "format": "cell-based", "conditions": "peptides at 25, 50 or 100 μM; DMSO group set to 100%; TZM-bl read-out"}, "CEM cells [3]": {"tested_on": "CEM cells", "experiment": "Growth of infected CEM cells, trypan blue staining", "format": "cell-based", "conditions": "infected cells with 50 μM peptide, trypan blue staining every other day"}, "CEM-SS cells [4]": {"tested_on": "CEM-SS cells", "experiment": "Cytotoxicity assay (CellTiter-Glo) in CEM-SS cells", "format": "cell-based", "conditions": "2-fold dilutions from 100 μM, 48 h, DMSO group = 100%"}, "CEM-SS cells [5]": {"tested_on": "CEM-SS cells", "experiment": "Growth of infected CEM-SS cells, trypan blue staining", "format": "cell-based", "conditions": "infected cells with 50 μM peptide, trypan blue staining every other day"}, "CEM cells [6]": {"tested_on": "CEM cells", "experiment": "Cytotoxicity assay (CellTiter-Glo) in CEM cells", "format": "cell-based", "conditions": "2-fold dilutions from 100 μM, 48 h, DMSO group = 100%"}, "[7]": {"target": "wild-type (WT) Vif displayed on yeast cells (HIV-1) (UniProt P69723)", "sequence (P69723 whole entry)": "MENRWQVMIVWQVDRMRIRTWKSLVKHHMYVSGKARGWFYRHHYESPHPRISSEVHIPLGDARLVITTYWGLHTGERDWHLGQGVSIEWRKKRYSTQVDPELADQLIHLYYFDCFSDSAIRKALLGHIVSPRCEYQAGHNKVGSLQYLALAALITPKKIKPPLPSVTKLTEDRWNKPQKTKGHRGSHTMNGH", "experiment": "flow cytometry on cells"}}, "note": "Peptide text beside a SMILES is read from it. * marks the point of attachment. Cbz = O=C(OCc1ccccc1)*", "data": [{"compound": "CC(C)C[C@@H](C=O)NC(=O)[C@H](CC(C)C)NC(=O)[C@H](CC(C)C)NC(=O)OCc1ccccc1", "note": "[MG132] (Cbz-Leu-Leu-Leu-aldehyde)", "values": [{"measurement": "A3G level in the presence of Vif", "setting": "[1]", "value": 73, "unit": "%"}]}, {"compound": "CC[C@H](C)[C@H](NC(=O)[C@H](CCSC)NC(=O)[C@@H](NC(=O)[C@H](CCC(=O)O)NC(C)=O)C(C)C)C(=O)N[C@H](C(=O)N[C@@H](Cc1c[nH]c2ccccc12)C(=O)N[C@@H](CCC(=O)O)C(=O)N[C@H](C(=O)N[C@@H](CC(=O)O)C(=O)N[C@@H](CCCNC(=N)N)C(=O)N[C@@H](CCSC)C(=O)N[C@@H](CCCNC(=N)N)C(=O)N[C@H](C(=O)N[C@H](C(=O)N[C@H](C(N)=O)[C@@H](C)O)[C@@H](C)O)[C@@H](C)CC)C(C)C)C(C)C", "note": "[VMP-6] (Ac-EVMIVWEVDRMRITT-NH2)", "values": [{"measurement": "effect on infectivity of the A3G-containing viruses", "setting": "[2]", "value": "did not affect the viral infectivity"}]}, {"compound": "CC[C@H](C)[C@H](NC(=O)[C@H](C)NC(=O)[C@H](CC(C)C)NC(=O)CNC(C)=O)C(=O)N[C@H](C(=O)N[C@H](C(=O)N[C@@H](Cc1ccc(O)cc1)C(=O)N[C@@H](Cc1c[nH]c2ccccc12)C(=O)NCC(=O)N[C@@H](CC(C)C)C(=O)N[C@@H](Cc1c[nH]cn1)C(=O)N[C@H](C(=O)NCC(=O)N[C@@H](CCC(=O)O)C(=O)N[C@@H](CCCNC(=N)N)C(=O)NCC(N)=O)[C@@H](C)O)[C@@H](C)O)[C@@H](C)O", "note": "[VMP-63]", "values": [{"measurement": "growth of CEM cells", "setting": "CEM cells [3]", "value": "not affected"}, {"measurement": "cytotoxicity on CEM-SS cells", "setting": "CEM-SS cells [4]", "value": "almost no cytotoxicity"}, {"measurement": "growth of CEM-SS cells", "setting": "CEM-SS cells [5]", "value": "not affected"}, {"measurement": "cytotoxicity on CEM cells", "setting": "CEM cells [6]", "value": "almost no cytotoxicity"}]}, {"compound": "CC(=O)N[C@@H](Cc1c[nH]c2ccccc12)C(=O)NCC(=O)N[C@@H](CC(C)C)C(=O)N[C@@H](Cc1c[nH]cn1)C(=O)N[C@H](C(=O)NCC(=O)N[C@@H](CCC(=O)O)C(=O)N[C@@H](CCCNC(=N)N)C(=O)NCC(N)=O)[C@@H](C)O", "note": "[VMP-70] (Ac-WGLHTGERG-NH2)", "values": [{"measurement": "effect on infectivity of the A3G-containing viruses", "setting": "[2]", "value": "did not affect the viral infectivity"}]}, {"compound": "CC[C@H](C)[C@H](NC(=O)[C@H](C)NC(=O)[C@H](CO)NC(=O)[C@H](CC(N)=O)NC(=O)[C@H](CO)NC(=O)[C@H](Cc1ccccc1)NC(=O)[C@H](CS)NC(=O)[C@H](CC(=O)O)NC(=O)[C@H](Cc1ccccc1)NC(=O)[C@H](Cc1ccc(O)cc1)NC(=O)[C@H](Cc1ccc(O)cc1)NC(=O)[C@H](CC(C)C)NC(=O)[C@H](CCCNC(=N)N)NC(C)=O)C(N)=O", "note": "[VMP-108]", "values": [{"measurement": "growth of CEM cells", "setting": "CEM cells [3]", "value": "not affected"}, {"measurement": "cytotoxicity on CEM-SS cells", "setting": "CEM-SS cells [4]", "value": "almost no cytotoxicity"}, {"measurement": "growth of CEM-SS cells", "setting": "CEM-SS cells [5]", "value": "not affected"}, {"measurement": "cytotoxicity on CEM cells", "setting": "CEM cells [6]", "value": "almost no cytotoxicity"}]}, {"compound": "CC(=O)N[C@@H](Cc1ccc(O)cc1)C(=O)N[C@@H](Cc1ccccc1)C(=O)N[C@@H](CC(=O)O)C(=O)N[C@@H](CS)C(=O)N[C@@H](Cc1ccccc1)C(=O)N[C@@H](CO)C(=O)N[C@@H](CC(N)=O)C(=O)N[C@@H](CO)C(=O)N[C@@H](C)C(=O)N[C@H](C(=O)N[C@@H](CCCNC(=N)N)C(=O)N[C@@H](CCCCN)C(=O)N[C@H](C(N)=O)C(C)C)[C@@H](C)O", "note": "[VMP-111] (Ac-YFDCFSNSATRKV-NH2)", "values": [{"measurement": "effect on infectivity of the A3G-containing viruses", "setting": "[2]", "value": "did not affect the viral infectivity"}]}, {"compound": "CBFβ protein, purified (from UniProt Q13951 1-182) (natural protein)", "values": [{"measurement": "FITC-positive cells", "setting": "[7]", "value": 0.076, "unit": "%"}]}]}
